Results taken from ChEMBL document CHEMBL4619738, “Ansamycin derivatives from the marine-derived Streptomyces sp. SCSGAA 0027 and their cytotoxic and antiviral activities” (Bioorg Med Chem Lett, 2020).
Converted amounts (≈) assume the structure as drawn.

Tests used:
[1] = test system: MCF7
[2] = test system: K562; experiment: Cytotoxicity against human K562 cells assessed as reduction in cell viability; assay type: functional, cell-based
[3] = test system: Bacillus amyloliquefaciens; experiment: Antibacterial activity against Bacillus amyloliquefaciens; assay type: functional
[4] = biological target: Heat shock protein HSP 90-alpha (Homo sapiens, UniProt P07900); experiment: Inhibition of HSP90alpha (unknown origin)
[5] = test system: Shewanella oneidensis; experiment: Antibacterial activity against Shewanella oneidensis MR-1; assay type: functional
[6] = test system: A549; experiment: Cytotoxicity against human A549 cells assessed as reduction in cell viability; assay type: functional, cell-based
[7] = test system: HL-60
Description: (§1) Cytotoxicity against human HL60 cells assessed as reduction in cell viability

[8] = test system: Staphylococcus aureus; experiment: Antibacterial activity against Staphylococcus aureus; assay type: functional
[9] = test system: MCF7; experiment: cells; details: Homo sapiens
[10] = test system: HL-60; experiment: cells; details: Homo sapiens
Description: as §1

[11] = test system: Human alphaherpesvirus 1; experiment: Antiviral activity against HSV-1 by plaque reduction assay; assay type: functional, organism-based
[12] = Cytotoxicity against African green monkey Vero cells assessed as reduction in cell viability; assay type: cell-based; details: chlorocebus sabaeus
[13] = Homo sapiens, K562, read-out: IC50

Row | SMILES | IC50 [1] | IC50 ([2]; k562) | MIC [3] [µg/mL] | IC50 ([4]; read-out: IC50) [µM] | MIC [5] [µg/mL] | IC50 [6] [µM] | IC50 [7] | MIC [8] [µg/mL] | IC50 [2, 13] [µM] | IC50 [9] [µM] | IC50 [10] [µM] | IC50 [11] [µM] | CC50 [12] [µM] | MNTC ([12]; read-out: MNCC) [µM] | IC50 [4]
1 | CO[C@H]1C[C@H](C)Cc2cc(cc(O)c2O)NC(=O)/C(C)=C/CC[C@H](OC)[C@@H](OC(N)=O)/C(C)=C/[C@H](C)[C@H]1O | Not Active | Not Active | > 200 | 0.03 | > 200 | > 50 | Not Active | > 200 | – | – | – | – | – | – | –
2 | CO[C@H]1/C=C\C=C(/C)C(=O)NC2=CC(=O)C(O)=C(C[C@@H](C)C[C@H](OC)[C@H](O)[C@@H](C)/C=C(\C)[C@@H]1OC(N)=O)C2=O | – | – | > 200 | 4.1 | > 200 | 7.7 | – | > 200 | 4.8 | 9.9 | 36 | – | – | – | –
3 | CC[C@H]1/C=C/[C@@H]([C@H](C)O)OC(=O)/C(C)=C/CC(=O)Nc2cc(O)cc3c2O[C@@]2(CC1)CC(=O)[C@@H](C)[C@H]3O2 | – | – | – | – | – | – | – | – | – | – | – | 19 | 510 | 160 | –
4 | COc1c(O)cc2c3c1C[C@@H](C)C[C@H](OC)[C@H](O3)[C@@H](C)/C=C(\C)[C@H](OC(N)=O)[C@@H](OC)/C=C/C=C(\C)C(=O)N2 | – | – | > 200 | – | > 200 | 37 | – | > 200 | 43 | 36 | 35 | – | – | – | Not Active
5 | COc1c(O)cc2c3c1C[C@@H](C)C[C@H](OC)[C@H](O3)[C@@H](C)/C=C(\C)[C@H](OC(N)=O)[C@@H](OC)/C=C\C=C(\C)C(=O)N2 | – | – | > 200 | – | > 200 | 13 | – | > 200 | 18 | 35 | 48 | – | – | – | Not Active
6 | CO[C@H]1/C=C\C=C(/C)C(=O)NC2=CC(=O)C=C(C2=O)[C@H](OC)[C@@H](C)C[C@H](OC)[C@H](O)[C@@H](C)/C=C(\C)[C@@H]1OC(N)=O [HERBIMYCIN C] | – | – | 100 (≈ 178 µM) | 31 | > 200 | 19 | – | 50 (≈ 89.2 µM) | 20 | 20 | 56 | – | – | – | –
7 | CC(=O)O[C@H]1C(=O)[C@@]2(C)[C@H]([C@H](OC(=O)c3ccccc3)[C@]3(O)C[C@H](OC(=O)[C@H](O)[C@@H](NC(=O)c4ccccc4)c4ccccc4)C(C)=C1C3(C)C)[C@]1(OC(C)=O)CO[C@@H]1C[C@@H]2O [PACLITAXEL] | – | – | – | – | – | – | – | – | – | – | – | – | – | – | Not Active
8 | COc1c(O)cc2c3c1C[C@@H](C)C[C@H](OC)[C@H](O3)[C@@H](C)/C=C(\C)[C@H](OC(N)=O)[C@@H](OC)C[C@@H](O)/C=C(\C)C(=O)N2 | – | – | 100 (≈ 178 µM) | 96 | > 200 | > 100 | Not Active | 50 (≈ 88.9 µM) | > 100 | > 100 | – | – | – | – | –
9 | COC1=C2C[C@@H](C)C[C@H](OC)[C@H](O)[C@@H](C)/C=C(\C)[C@H](OC(N)=O)[C@@H](OC)/C=C\C=C(/C)C(=O)NC(=CC1=O)C2=O [GELDANAMYCIN] | – | – | > 200 | – | > 200 | – | – | > 200 | – | – | – | – | – | – | –
10 | COc1c(O)cc2c3c1C[C@@H](C)C[C@H](OC)[C@H](O3)[C@@H](C)/C=C(\C)[C@H](OC(N)=O)[C@@H](OC)/C=C\C=C(/C)C(=O)N2 | – | – | > 200 | – | > 200 | 16 | – | > 200 | 14 | 20 | 27 | – | – | – | Not Active
11 | COc1c(O)cc2c3c1C[C@@H](C)C[C@H](OC)[C@H](O3)[C@@H](C)/C=C(\C)[C@H](OC(N)=O)[C@@H](OC)CC/C=C(\C)C(=O)N2 | – | – | > 200 | – | > 200 | 65 | – | > 200 | 43 | 70 | 86 | – | – | – | Not Active
12 | COc1c(O)cc2cc1C[C@@H](C)C[C@H](OC)[C@H](O)[C@@H](C)/C=C(\C)[C@H](OC(N)=O)[C@@H](OC)CC/C=C(\C)C(=O)N2 [REBLASTATIN] | Not Active | – | > 200 | 0.005 | > 200 | 0.7 | Not Active | > 200 | – | – | – | – | – | – | –
